For data set [1], the target named is T1, CB1 receptor (Homo sapiens, UniProt P21554). The experiment in a line: FLIPR calcium flux assay, agonist format, CB1. It counts as cell-based. As to conditions: Emax of reference agonist CP-55,940 as 100%. As for the experimental part:
(§1) A FLIPR assay was conducted to monitor agonist and antagonist selectivity for compounds of the invention against the CBI and GLP-1 receptors. Percentage activation and percentage inhibition values were determined for each compound on each of the GPCRs listed above. Agonist selectivity was determined upon initial addition of compounds followed by 10 minute incubation at 25° C. Following compound incubation, reference agonists were added at EC80 to determine percentage inhibition.
(§2) Agonist percentage activation determinations were obtained by assaying sample compounds and referencing the Emax control for each of the GPCRs profiled. Antagonist percentage inhibition determinations were obtained by assaying sample compounds and referencing the control EC80 wells for each of the GPCRs profiled. The protocol design is as follows:
(§3) Unless specified otherwise, all sample compounds were diluted in 100% anhydrous DMSO including all serial dilutions. Occasionally sample compounds were provided in a different solvent, in this case all master stock dilutions were performed in the specified diluent. All control wells contained identical solvent final concentrations as sample compound wells.
(§4) Sample compounds were transferred from a master stock solution into a daughter plate that was used in the assay. Each sample compound was diluted into assay buffer (1×HBSS with 20 mM HEPES) at an appropriate concentration to obtain final concentrations.
(§5) All sample compounds were plated at 1 μM in duplicate for assaying against all GPCRs. Reference agonists were handled as mentioned above serving as assay control. These reference agonists were handled as described above for both EMax and EC80 control wells. Assay was read for 90 seconds using the FLIPRTETRA. (This assay run added sample compounds and reference agonist to respective rows.) At the completion of the first “Single Addition” assay run, assay plate was removed from the FLIPRTetra and placed at 25° C. for 10 minutes.
(§6) All plates were subjected to appropriate baseline corrections. Once baseline corrections were processed, maximum fluorescence values were exported and data manipulated to calculate percentage activation, percentage inhibition, Z′, EC50, and IC50. Percentage activation data was calculated using Emax as 100% control. Percentage inhibition was calculated using EC80 as 0% inhibition.
A general note: Calcium assays in cells follow changes in intracellular calcium, usually with a dye or a luminescent sensor.

The nature of the next data set: in vivo. More on the design: species or system Sprague-Dawley rats. The conditions noted are these: rat; for bioavailability: male, Sprague-Dawley, po, 20 mg/kg; for half-life: male Sprague-Dawley rats. As for the experimental part: The pharmacokinetics of compounds 4a, 6a, and 12 was evaluated in male Sprague-Dawley rats (n=3) following single intravenous (i.v., 1 mg/kg) or oral (p.o., 20 mg/kg) doses.

Data set [2] has as its target T2, GLP-1 receptor (Homo sapiens, UniProt P43220). Description: FLIPR calcium flux assay, antagonist format, GLP-1. As to conditions: 1 μM, reference ligand Glucagon at EC80 as 0% inhibition; read-out: % Inhibition Antagonist GLP-1. The format is cell-based. Here is the method: as §1, §2, §3, §4
(§7) Using the EC50 values determined previously, stimulated all pre-incubated sample compound and reference antagonist (if applicable) wells with EC80 of reference agonist. Read for 90 seconds using the FLIPRTETRA. (This assay added reference agonist to respective wells—then fluorescence measurements were collected to calculate percentage inhibition.)
as §6

Data set [3] has as its target T2, GLP-1 receptor. Description: FLIPR calcium flux assay, agonist format, GLP-1. As to conditions: Emax of reference ligand Glucagon as 100%. It counts as cell-based. Here is the method: as §1, §2, §3, §4, §5, §6
In data set [4] the target is T1, CB1 receptor. Description: FLIPR calcium flux assay, antagonist format, CB1. It counts as cell-based. As to conditions: reference agonist CP-55,940 at EC80 as 0% inhibition. Here is the method: as §1, §2, §3, §4, §7, §6
The test system of data set [5] is non-insulin dependent diabetic mellitus (NIDDM) male mice (C57BL/KsJ-db/db Jcl). The experiment in a line: In vivo analysis in the db/db mouse (serum insulin, serum glucose, weight). As to conditions: for percentage increase in insulin levels: FIG. 1; for percentage decrease in glucose levels: FIG. 2; for percentage decrease in weight: FIG. 3. As for the experimental part: […] All animals were allowed free access to normal laboratory chow and water.
Serum glucose and insulin levels were determined by Enzymatic Method (Mutaratase-GOD) and ELISA (mouse insulin assay kit) from orbital sinus blood samples obtained before (pretreatment) and 90 minutes after the last vehicle and/or test substance administration (postreatment) and percent change was determined.

Where [6] appears, read: iv, single i.v. dose 1 mg/kg, read-out: t1/2 (i.v., hr) (converted).
[7] abbreviates: single oral dose 20 mg/kg, read-out: t1/2 (p.o., hr) (converted).
Where [8] appears, read: 200 mg/kg oral gavage once daily for three days.

Where two headings read alike, the source gives them in different places.

In general, bioavailability refers to the share of a dose that reaches the circulation, judged against a reference dose that is usually intravenous. High values mean good availability, low ones poor availability. As usually defined, the inhibition is the drop in the measured response relative to a control, in per cent.

T2 sequence (P43220 24-463): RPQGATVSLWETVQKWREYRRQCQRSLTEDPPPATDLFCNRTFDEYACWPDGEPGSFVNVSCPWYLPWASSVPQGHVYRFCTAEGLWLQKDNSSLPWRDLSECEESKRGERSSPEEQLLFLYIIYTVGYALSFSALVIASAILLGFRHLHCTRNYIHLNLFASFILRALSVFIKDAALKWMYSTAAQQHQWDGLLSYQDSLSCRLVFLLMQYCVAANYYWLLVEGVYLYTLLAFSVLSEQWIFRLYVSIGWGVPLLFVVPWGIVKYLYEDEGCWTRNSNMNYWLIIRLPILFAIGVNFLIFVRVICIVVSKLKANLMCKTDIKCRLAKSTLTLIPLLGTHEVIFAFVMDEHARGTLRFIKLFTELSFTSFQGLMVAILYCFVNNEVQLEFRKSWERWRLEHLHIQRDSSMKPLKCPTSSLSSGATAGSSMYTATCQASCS
T1 sequence (P21554 whole entry): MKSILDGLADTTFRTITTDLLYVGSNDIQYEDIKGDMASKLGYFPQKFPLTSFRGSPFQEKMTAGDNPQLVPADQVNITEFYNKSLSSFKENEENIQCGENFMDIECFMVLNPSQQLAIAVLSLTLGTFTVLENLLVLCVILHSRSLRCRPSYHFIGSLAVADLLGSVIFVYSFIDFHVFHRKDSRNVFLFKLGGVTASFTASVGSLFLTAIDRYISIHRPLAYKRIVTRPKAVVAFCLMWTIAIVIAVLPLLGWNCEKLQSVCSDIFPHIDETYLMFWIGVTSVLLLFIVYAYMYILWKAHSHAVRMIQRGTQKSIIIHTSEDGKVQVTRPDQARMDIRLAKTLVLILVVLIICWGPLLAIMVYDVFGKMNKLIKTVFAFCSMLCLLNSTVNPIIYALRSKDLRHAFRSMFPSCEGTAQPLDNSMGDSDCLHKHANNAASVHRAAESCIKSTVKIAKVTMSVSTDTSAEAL

Regarding `CC(C)Cc1ccc([C@H](C)C(=O)NCC[C@@H](Oc2ccc(C(F)(F)F)cc2)c2ccccc2)cc1` [Compound 4a], the figures for the activation at 1 µM on CB1 receptor [1] and at GLP-1 receptor [3] were 3.2% and 39.9%, respectively. The compound further registered a bioavailability in the data set “in vivo” of 5.1%. For the same compound, the figures for the half-life in the data set “in vivo” (setting [6]) and in the data set “in vivo” (setting [7]) were 0.6 h and 1 h, respectively. The inhibition at 1 µM on GLP-1 receptor [2] was -21.8%; at CB1 receptor [4] it was 7.7%.
Take `C[C@H](C(=O)NCC[C@@H](Oc1ccc(C(F)(F)F)cc1)c1ccccc1)c1cccc(C(=O)c2ccccc2)c1` [Compound 6a]: the activation at 1 µM on CB1 receptor [1] turned out to be 4.2%; on GLP-1 receptor [3], 38.6%. Further, the bioavailability in the data set “in vivo” came to 14.8%. The half-life in the data set “in vivo” (setting [6]) is 1.4 h; in “in vivo” (setting [7]), 2.1 h. Also, in data set [5] (setting [8]), the “percentage increase in insulin levels” value is “significant increases”. Besides, the “percentage decrease in glucose levels” value in data set [5] (setting [8]) is “significant decreases”. For the same compound, the “percentage decrease in weight” value in data set [5] (setting [8]) was “significant decreases”. Further, the inhibition at 1 µM at GLP-1 receptor [2] is -7.2%; at CB1 receptor [4], 77.9%.
In the case of `CC(C)Cc1ccc([C@H](C)C(=O)N(C)CCC(Oc2ccc(C(F)(F)F)cc2)c2ccccc2)cc1` (some centres unmarked) [Compound 12], the figures for the activation at 1 µM at CB1 receptor [1] and at GLP-1 receptor [3] were 4.1% and 44.6%, respectively. In the data set “in vivo”, this compound showed a bioavailability of 6.5%. Also, the values for the half-life in the data set “in vivo” (setting [6]) and in the data set “in vivo” (setting [7]) were 1.7 h and 1.4 h, respectively. Besides, the inhibition at 1 µM at GLP-1 receptor [2] was -14.9%; on CB1 receptor [4] it was 3.2%.
`CC(C)Cc1ccc([C@H](C)C(=O)N(C)CC[C@@H](Oc2ccc(C(F)(F)F)cc2)c2ccccc2)cc1` [Compound 12a]: the activation at 1 µM on CB1 receptor [1] was 3.6%. Moreover, in data set [5] (setting [8]), the “percentage increase in insulin levels” value was “significant increases”, the “percentage decrease in glucose levels” value was “significant decreases” and the “percentage decrease in weight” value is given as “significant decreases”. Besides, the inhibition at 1 µM on GLP-1 receptor [2] is 4.5%. Further, on GLP-1 receptor [3], the activation at 1 µM amounted to 7.6%. In addition, on CB1 receptor [4], the inhibition at 1 µM was 52.2%.
Take `CC(C)Cc1ccc([C@H](C)C(=O)N(C)CC[C@H](Oc2ccc(C(F)(F)F)cc2)c2ccccc2)cc1` [Compound 12b]: the activation at 1 µM was determined as 8.3% at CB1 receptor [1] and 24.5% at GLP-1 receptor [3]. Further, the “percentage increase in insulin levels” value in data set [5] (100 mg/kg oral gavage once daily for three days) is reported as “significant increase”; in data set [5] (setting [8]), “significant increases”. For the same compound, the “percentage decrease in glucose levels” value in data set [5] (setting [8]) is “significant decreases”. Also, the “percentage decrease in weight” value in data set [5] (setting [8]) is given as “significant decreases”. Also, the results for the inhibition at 1 µM on GLP-1 receptor [2] and on CB1 receptor [4] were 5.9% and 1.6%, respectively.
On to `CCc1ccc(C(C)C(=O)N(C)CC[C@H](Oc2ccc(C(F)(F)F)cc2)c2ccccc2)cc1` (some centres unmarked) [Compound 34b], for which the results for the activation at 1 µM at CB1 receptor [1] and on GLP-1 receptor [3] were -1.9% and 0.2%, respectively. For the same compound, the results for the inhibition at 1 µM on GLP-1 receptor [2] and at CB1 receptor [4] were 1.6% and 76.4%, respectively.
On to `CC(C)Cc1cccc(C(C)C(=O)N(C)CC[C@@H](Oc2ccc(C(F)(F)F)cc2)c2ccccc2)c1` (some centres unmarked) [Compound 35a], for which the activation at 1 µM was -1% at CB1 receptor [1] and -0.9% on GLP-1 receptor [3]. Moreover, the inhibition at 1 µM on GLP-1 receptor [2] amounted to 7.7%; on CB1 receptor [4] it was 80.5%.
The like results for `CC(C)Cc1cccc(C(C)C(=O)N(C)CC[C@H](Oc2ccc(C(F)(F)F)cc2)c2ccccc2)c1` (some centres unmarked) [Compound 35b] were, in that order, 1.1%, 3.8%, 0.3% and 38.9%.
The like results for `CC(C)Cc1ccc(C2(C(=O)N(C)CC[C@@H](Oc3ccc(C(F)(F)F)cc3)c3ccccc3)CC2)cc1` [Compound 36a] were, in that order, -1.2%, 4.4%, 11% and 59.9%.
`CC(C)Cc1ccc(C2(C(=O)N(C)CC[C@H](Oc3ccc(C(F)(F)F)cc3)c3ccccc3)CC2)cc1` [Compound 36b]: the activation at 1 µM at CB1 receptor [1] is -1.1%; on GLP-1 receptor [3] it was 0.5%. For the same compound, the inhibition at 1 µM at GLP-1 receptor [2] is 5.5%; at CB1 receptor [4], 15.5%.
Turning to `CN(C)C(=N)N=C(N)N` [metformin, reference compound], in data set [5] (300 mg/kg oral), the “percentage increase in insulin levels” value is “does not show an increase”, the “percentage decrease in glucose levels” value was “significant decrease” and the “percentage decrease in weight” value is given as “does not show a decrease”.

For the origin of these results see patent US20100292289A1 (priority 2007, published 2010).
